Reference: patent US4599325A, “Substituted tyrosyl alanine dipeptide amides” (G. D. Searle & Co., priority 1985, dated 1986)

Legend:
opiate receptors = assay: Opiate binding assay (displacement of 3H-Naloxone); design: species or system rat; conditions: Table 1, 3H-Naloxone, rat brain membranes
Description: The test compounds were evaluated for their ability to displace the binding of ^3 H-Naloxone to opiate receptors isolate from rat brain. Male rats [COBS CD(SD)BR] obtained from Charles River Laboratories (Portage, MI) were sacrificed by cervical dislocation. A purified homogenate of receptor membranes was prepared from the brains according to the method described by Chang and Cuatrecasas. (K.-J. Chang and P. Cuatrecases. Multiple Opiate Receptors: Enkephalins And Morphine Bind To Receptors Of Different Specificity. J. Biol. Chem. 254, 2610-2618 (1979).) The brains were homogenized in 10 volumes of 0.32M sucrose and centrifuged twice at 6,000×g for 15 minutes. Following centrifugation of the supernatants at 40,000×g for 30 minutes, the pellets were allowed to swell, then centrifuged at 6,000 and 40,000×g. This process was repeated. The final pellet was resuspended in 2 volumes of 50 mM tris HCl (pH 7.4). The homogenate was assayed for protein content according to the method of Itzhaki and Gill. R. F. Itzhaki and D. M. Gill. A Micro-Biuret Method for Estimating Proteins. Anal. Biochem. 9, […] (1964).
The binding of the test compounds to the receptor membrane preparation was measured using a modification of the method of Pert and Snyder. C. B. Pert and S. H. Snyder. Properties of Opiate-Receptor Binding in Rat Brain. Proc. Natl. Acad. Sci. 70, 2243-2247 (1973). The receptor assay was run using 1 nM ^3 H-Naloxone and 2 ml of tissue homogenate (0.5 mg/ml protein concentration). Levorphanol (1×10^-5 M) was used as the displacer for non-specific binding. Both the displacer and the test compounds were added in 0.02 ml volumes. The assay was run in 0.05M tris HCl (pH 7.4) ±100 mM NaCl. Total assay volume was 2.03 ml.
Samples were incubated at 25° C. for 60 min., cooled on ice 5 min. and subsequently filtered over Whatman GF/C glass fiber filters with 2.4 ml washes of cold buffer. The filters were then solubilized in 1 ml of NCS at 50° C. for 1 hour. After solubilization, the pH was adjusted with 0.1 ml of glacial acetic acid, 10 ml of PCS was added and the samples were counted in a Nuclear Chicago Mark II liquid scintillation counter. This method was used for the following test compounds: Example 4, Example 5, Example 27, Example 28, Example 38, Example 39, and the prior art compound (4).
A modification of this method was used for the following test compounds: Example 16, Example 17, Example 21, Example 22, Example 24, Example 30, Example 31. In this modification, the total assay volume was adjusted to 1.0 ml. Samples were cooled on ice for 10 minutes and dried at 50° C. for 30 minutes, then 10 mls of PCS was added and the samples counted in a liquid scinitillation counter.
The IC50 values, the concentration of the test compounds which inhibited ^3 H-Naloxone specific binding to the opiate receptor by 50%, were obtained from log-probit plots of concentration-response curves. D. J. Finney. Probit Analysis. Cambridge University Press, London, 1947.

mice = assay: Writhing assay (phenylbenzoquinone); type: in vivo, mouse; design: key to Writhing Mouse Subc., effect of the screening dose / Writhing Mouse Oral, effect of the screening dose: Active: The test compound was rated active if writhing was inhibited (as described) in 5 of 10 mice; conditions: Table 1; for Writhing Mouse Oral, effect of the screening dose: screening dose 10 mg/kg p.o.; for Writhing Mouse Subc., effect of the screening dose: screening dose 10 mg/kg s.c.
Description: Male Charles River albino mice (CD-1/HAM/1LR) weighing between 20 and 30 grams were used. Thirty minutes after subcutaneous or intragastric administration of the test compound (0.1 ml/10 gram body weight), 0.025% (w/v) phenylbenzoquinone was injected intraperitoneally (0.1 ml/10 gram body weight). Five minutes later, each mouse was placed in a large glass beaker and the number of writhes that occurred in the subsequent ten minutes is counted. A writhe consisted of dorsoflexion of the back, extension of the hindlimbs, and strong contraction of the abdominal musculature. The test compound was considered to have produced analgesia in a mouse if the number of writhes elicited by phenylbenzoquinone was equal to or less than one-half the median number of writhes recorded for the saline-treated group that day. The results were expressed as the number of mice (out of a possible ten) in which the test compound produced analgesia. The test compound was rated active if writhing was inhibited (as described) in 5 of 10 mice.
The receptor binding and biological properties of the following compounds of this invention are illustrated in Tables 1 and 2 utilizing the previously described opiate binding, hot plate, tail flick, writhing assay, cholera test or hypertensive test. The standard screening dose for the hot plate test of Table 1 was 10 mg/kg i.v. and for the writhing assay was 10 mg/kg s.c. and p.o.

[1] = system: spontaneous hypertensive rats (SHR); assay: Hypertensive test in spontaneous hypertensive rats (SHR); type: in vivo, rat; design: key to Antihypertensive Properties, Result: Active: Any compound that resulted in a decrease in arterial blood pressure of 20 mm Hg or greater was considered active; conditions: Table 3; 10 mg/kg intravenously, one unanesthetized male SHR
Description: A compound's ability to act as an antihypertensive agent was determined using spontaneous hypertensive rats (SHR). Male SHR were maintained in-house for 1 or more weeks before use and were between 11 and 16 weeks old. The test compound was administered intravenously and the initial mean arterial blood pressure was measured directly via an arterial catheter implanted immediately before administration of the compound. Blood pressure readings were made 5, 10 and 15 minutes after administration of the compound. […] Statistical comparisons were made using the unpaired student's test.
The following compounds of the invention were evaluated for their antihypertensive properties using the spontaneous hypertensive rat (SHR). […] The SHR test was essentially that described earlier. Each compound listed in Table 3, was administered intravenously to one unanesthetized, male, spontaneously hypertensive rat; the dosage was 10 mg/kg.

Compound | IC50 (opiate receptors) [nM] | Writhing Mouse Oral, effect of the screening dose (mice) | Writhing Mouse Subc., effect of the screening dose (mice) | Antihypertensive Properties, Result [1] | IC50 (opiate receptors; hydrochloride) [nM] | ED50 (mice; Mus musculus, sc, subcutaneous, read-out: Writhing Mouse Subc. (ED50)) [mg/kg] | Writhing Mouse Oral (ED50) (mice; oral, hydrochloride) [mg/kg]
2,6-dimethyltyrosyl-N-(3-cyclohexylpropyl)-D-alaninamide, (2-methylpropyl)carbonate (ester) [Example 27] | 2.7 | Active | Active | – | – | – | –
2,6-dimethyltyrosyl-N-[3-(2,6-dimethylphenyl)propyl]-D-alaninamide, hydrochloride [Example 39] | 0.5 | Active | Active | – | – | – | –
2-methyltyrosyl-N-(3-phenylpropyl)-D-alaninamide, hydrochloride [Example 16] | – | – | – | Active | – | – | –
2,6-dimethyltyrosyl-N-[3-(2,6-dimethylphenyl)propyl]-D-alaninamide hydrochloride [Example 38] | 160 | Active | Active | – | – | – | –
2,6-dimethyltyrosyl-N-(4-phenylbutyl)-D-alaninamide, hydrochloride [Example 43] | – | Active | Active | – | – | – | –
Cc1cc(O)cc(C)c1C[C@H](N)C(=O)N[C@H](C)C(=O)NCCCc1ccccc1.Cl [Example 4, 2,6-dimethyltyrosyl-N-(3-phenylpropyl)-D-alaninamide hydrochloride] | – | – | – | Active | 50 | 0.58 | 2.39
